Assay results: ChEMBL document CHEMBL4715829, “Heterodimeric Rifampicin-Tobramycin conjugates break intrinsic resistance of Pseudomonas aeruginosa to doxycycline and chloramphenicol in vitro and in a Galleria mellonella in vivo model” (Eur J Med Chem, 2019)

How the values were obtained:
Escherichia coli [1] = assay: Antibacterial activity against Escherichia coli ATCC 25922 assessed as reduction in bacterial growth incubated for 18 hrs by broth microdilution assay; assay type: functional
Staphylococcus aureus [2] = assay: Antibacterial activity against Staphylococcus aureus ATCC 29213 assessed as reduction in bacterial growth incubated for 18 hrs by broth microdilution assay; assay type: functional
Staphylococcus aureus [3] = assay: Antibacterial activity against methicillin-resistance Staphylococcus aureus ATCC 33592 assessed as reduction in bacterial growth incubated for 18 hrs by broth microdilution assay; assay type: functional
[4] = tested on: Staphylococcus epidermidis; assay: Antibacterial activity against methicillin-susceptible Staphylococcus epidermidis CANWARD 81388 assessed as reduction in bacterial growth incubated for 18 hrs by broth microdilution assay; assay type: functional
Enterococcus faecalis = assay: Antibacterial activity against Enterococcus faecalis ATCC 29212 assessed as reduction in bacterial growth incubated for 18 hrs by broth microdilution assay; assay type: functional
Streptococcus pneumoniae = assay: Antibacterial activity against Streptococcus pneumoniae ATCC 49619 assessed as reduction in bacterial growth incubated for 18 hrs by broth microdilution assay; assay type: functional
Escherichia coli [5] = assay: Antibacterial activity against Escherichia coli CAN-ICU 63074 (AMK 32) assessed as reduction in bacterial growth incubated for 18 hrs by broth microdilution assay; assay type: functional
Escherichia coli [6] = assay: Antibacterial activity against gentamicin, tobramycin, ciprofloxacin-resistant Escherichia coli ATCC 97615 harboring aac(3')IIa gene assessed as reduction in bacterial growth incubated for 18 hrs by broth microdilution assay; assay type: functional
Pseudomonas aeruginosa [7] = assay: Antibacterial activity against wild type Pseudomonas aeruginosa PAO1 assessed as reduction in bacterial growth incubated for 18 hrs by broth microdilution assay; assay type: functional
Pseudomonas aeruginosa [8] = assay: Antibacterial activity against Pseudomonas aeruginosa 750 harboring efflux mutant assessed as reduction in bacterial growth incubated for 18 hrs by broth microdilution assay; assay type: functional
Pseudomonas aeruginosa [9] = assay: Antibacterial activity against Pseudomonas aeruginosa PAO1 assessed as reduction in bacterial growth by measuring rifampicin MIC at <=[…] uM in presence of rifampicin incubated for 18 hrs by broth microdilution assay based checkerboard assay (reference value: […] microg/ml); assay type: functional; conditions: dose microM <=10
Pseudomonas aeruginosa [10] = assay: Antibacterial activity against Pseudomonas aeruginosa PAO1 assessed as reduction in bacterial growth by measuring tobramycin MIC at <=10 uM in presence of tobramycin incubated for 18 hrs by broth microdilution assay based checkerboard assay (reference value: 1 microg/ml); assay type: functional; conditions: dose microM <=10
Pseudomonas aeruginosa [11] = assay: Antibacterial activity against Pseudomonas aeruginosa PAO1 assessed as reduction in bacterial growth by measuring tigecycline MIC at <=10 uM in presence of tigecycline incubated for 18 hrs by broth microdilution assay based checkerboard assay (reference value: 4 microg/ml); assay type: functional; conditions: dose microM <=10
Pseudomonas aeruginosa [12] = assay: Antibacterial activity against Pseudomonas aeruginosa PAO1 assessed as reduction in bacterial growth by measuring linezolid MIC at <=10 uM in presence of linezolid incubated for 18 hrs by broth microdilution assay based checkerboard assay (reference value: 1024 microg/ml); assay type: functional; conditions: dose microM <=10
Pseudomonas aeruginosa [13] = assay: Antibacterial activity against Pseudomonas aeruginosa PAO1 assessed as reduction in bacterial growth by measuring vancomycin MIC at <=10 uM in presence of vancomycin incubated for 18 hrs by broth microdilution assay based checkerboard assay (reference value: 256 microg/ml); assay type: functional; conditions: dose microM <=10
Pseudomonas aeruginosa [14] = assay: Antibacterial activity against Pseudomonas aeruginosa PAO1 assessed as reduction in bacterial growth by measuring aztreonam MIC at <=10 uM in presence of aztreonam incubated for 18 hrs by broth microdilution assay based checkerboard assay (reference value: 4 microg/ml); assay type: functional; conditions: dose microM <=10
Pseudomonas aeruginosa [15] = assay: Antibacterial activity against Pseudomonas aeruginosa PAO1 assessed as reduction in bacterial growth by measuring ceftazidime MIC at <=10 uM in presence of ceftazidime incubated for 18 hrs by broth microdilution assay based checkerboard assay (reference value: 2 microg/ml); assay type: functional; conditions: dose microM <=10
Pseudomonas aeruginosa [16] = assay: Antibacterial activity against Pseudomonas aeruginosa PAO1 assessed as fractional inhibitory concentration index in presence of Doxycycline incubated for 18 hrs by broth microdilution assay based checkerboard assay; assay type: functional
Pseudomonas aeruginosa [17] = assay: Antibacterial activity against Pseudomonas aeruginosa PAO1 assessed as fractional inhibitory concentration index in presence of Linezolid incubated for 18 hrs by broth microdilution assay based checkerboard assay; assay type: functional
Pseudomonas aeruginosa [18] = assay: Antibacterial activity against Pseudomonas aeruginosa PAO1 assessed as fractional inhibitory concentration index in presence of Meropenem incubated for 18 hrs by broth microdilution assay based checkerboard assay; assay type: functional
Pseudomonas aeruginosa [19] = assay: Antibacterial activity against Pseudomonas aeruginosa PAO1 assessed as fractional inhibitory concentration index in presence of Moxifloxacin incubated for 18 hrs by broth microdilution assay based checkerboard assay; assay type: functional
Pseudomonas aeruginosa [20] = assay: Antibacterial activity against Pseudomonas aeruginosa PAO1 assessed as fractional inhibitory concentration index in presence of Ceftazidime incubated for 18 hrs by broth microdilution assay based checkerboard assay; assay type: functional
Pseudomonas aeruginosa [21] = assay: Antibacterial activity against Pseudomonas aeruginosa PAO1 assessed as fractional inhibitory concentration index in presence of Chloramphenicol incubated for 18 hrs by broth microdilution assay based checkerboard assay; assay type: functional
Pseudomonas aeruginosa [22] = assay: Antibacterial activity against Pseudomonas aeruginosa 100036 assessed as fractional inhibitory concentration index in presence of chloramphenicol incubated for 18 hrs by broth microdilution assay; assay type: functional
Pseudomonas aeruginosa [23] = assay: Antibacterial activity against Pseudomonas aeruginosa 262-101856 assessed as fractional inhibitory concentration index in presence of doxycycline incubated for 18 hrs by broth microdilution assay; assay type: functional
Pseudomonas aeruginosa [24] = assay: Antibacterial activity against Pseudomonas aeruginosa 259-96918 assessed as fractional inhibitory concentration index in presence of doxycycline incubated for 18 hrs by broth microdilution assay; assay type: functional
Pseudomonas aeruginosa [25] = assay: Antibacterial activity against Pseudomonas aeruginosa 259-96918 assessed as fractional inhibitory concentration index in presence of chloramphenicol incubated for 18 hrs by broth microdilution assay; assay type: functional
Pseudomonas aeruginosa [26] = assay: Antibacterial activity against Pseudomonas aeruginosa 260-97103 assessed as fractional inhibitory concentration index in presence of doxycycline incubated for 18 hrs by broth microdilution assay; assay type: functional
Pseudomonas aeruginosa [27] = assay: Antibacterial activity against Pseudomonas aeruginosa 260-97103 assessed as fractional inhibitory concentration index in presence of chloramphenicol incubated for 18 hrs by broth microdilution assay; assay type: functional
[28] = Cytotoxicity against human HEK293 cells assessed as cell viability at <10 uM incubated for 48 hrs by prestoblue assay; assay type: cell-based; conditions: read-out: Activity
[29] = Cytotoxicity against human HepG2 cells assessed as cell viability at 50 uM incubated for 48 hrs by prestoblue assay; assay type: cell-based; conditions: read-out: Activity
[30] = Cytotoxicity against human HEK293 cells assessed as cell viability at 50 uM incubated for 48 hrs by prestoblue assay; assay type: cell-based; conditions: read-out: Activity
Pseudomonas aeruginosa [31] = assay: Antibacterial activity against Pseudomonas aeruginosa 100036 assessed as reduction in bacterial growth incubated for 18 hrs by broth microdilution assay; assay type: functional
Pseudomonas aeruginosa [32] = assay: Antibacterial activity against Pseudomonas aeruginosa 101885 assessed as reduction in bacterial growth incubated for 18 hrs by broth microdilution assay; assay type: functional
Pseudomonas aeruginosa [33] = assay: Antibacterial activity against Pseudomonas aeruginosa 259-96918 assessed as reduction in bacterial growth incubated for 18 hrs by broth microdilution assay; assay type: functional
Pseudomonas aeruginosa [34] = assay: Antibacterial activity against Pseudomonas aeruginosa 91433 assessed as reduction in bacterial growth incubated for 18 hrs by broth microdilution assay; assay type: functional
Pseudomonas aeruginosa [35] = assay: Antibacterial activity against Pseudomonas aeruginosa 101243 assessed as reduction in bacterial growth incubated for 18 hrs by broth microdilution assay; assay type: functional
Pseudomonas aeruginosa [36] = assay: Antibacterial activity against Pseudomonas aeruginosa 114228 assessed as reduction in bacterial growth incubated for 18 hrs by broth microdilution assay; assay type: functional

## CO[C@H]1/C=C/O[C@@]2(C)Oc3c(C)c(O)c4c(O)c(c(/C=N/N5CCN(Cc6cn(CCCCCCCCCCCCO[C@@H]7[C@@H](O[C@H]8O[C@H](CO)[C@@H](O)[C@H](N)[C@H]8O)[C@H](N)C[C@H](N)[C@H]7O[C@H]7O[C@H](CN)[C@@H](O)C[C@H]7N)nn6)CC5)c(O)c4c3C2=O)NC(=O)/C(C)=C\C=C\[C@H](C)[C@H](O)[C@@H](C)[C@@H](O)[C@@H](C)[C@H](OC(C)=O)[C@@H]1C.O=C(O)C(F)(F)F.O=C(O)C(F)(F)F.O=C(O)C(F)(F)F.O=C(O)C(F)(F)F.O=C(O)C(F)(F)F
Escherichia coli [1]
  MIC: 16 µg/mL
Staphylococcus aureus [2]
  MIC: 16 µg/mL
Staphylococcus aureus [3]
  MIC: > 32 µg/mL
[4]
  MIC: 4 µg/mL
Enterococcus faecalis
  MIC: > 32 µg/mL
Streptococcus pneumoniae
  MIC: 8 µg/mL
Escherichia coli [5]
  MIC: 32 µg/mL
Escherichia coli [6]
  MIC: 32 µg/mL
Pseudomonas aeruginosa [7]
  MIC: 512 µg/mL
Pseudomonas aeruginosa [8]
  MIC: 128 µg/mL
Pseudomonas aeruginosa [9]
  MIC: 2 µg/mL
Pseudomonas aeruginosa [10]
  MIC: 1 µg/mL
Pseudomonas aeruginosa [11]
  MIC: 2 µg/mL
Pseudomonas aeruginosa [12]
  MIC: 256 µg/mL
Pseudomonas aeruginosa [13]
  MIC: 128 µg/mL
Pseudomonas aeruginosa [14]
  MIC: 4 µg/mL
Pseudomonas aeruginosa [15]
  MIC: 2 µg/mL
Pseudomonas aeruginosa [16]
  fractional inhibitory concentration index (FICI): 0.09
Pseudomonas aeruginosa [17]
  fractional inhibitory concentration index (FICI): 0.28
Pseudomonas aeruginosa [18]
  fractional inhibitory concentration index (FICI): 1.03
Pseudomonas aeruginosa [19]
  fractional inhibitory concentration index (FICI): 1.03
Pseudomonas aeruginosa [20]
  fractional inhibitory concentration index (FICI): 1.03
Pseudomonas aeruginosa [21]
  fractional inhibitory concentration index (FICI): 0.09
Pseudomonas aeruginosa [22]
  fractional inhibitory concentration index (FICI): 0.067
Pseudomonas aeruginosa [23]
  fractional inhibitory concentration index (FICI): <0.07
Pseudomonas aeruginosa [24]
  fractional inhibitory concentration index (FICI): <0.133
Pseudomonas aeruginosa [25]
  fractional inhibitory concentration index (FICI): <0.625
Pseudomonas aeruginosa [26]
  fractional inhibitory concentration index (FICI): <0.133
Pseudomonas aeruginosa [27]
  fractional inhibitory concentration index (FICI): <0.129
[28]
  viability at 48 h: > 90%
[29]
  viability at 48 h, 50 µM: > 70%
[30]
  viability at 48 h, 50 µM: > 70%
Pseudomonas aeruginosa [31]
  MIC: 256 µg/mL
Pseudomonas aeruginosa [32]
  MIC: 256 µg/mL
Pseudomonas aeruginosa [33]
  MIC: > 128 µg/mL
Pseudomonas aeruginosa [34]
  MIC: > 128 µg/mL
Pseudomonas aeruginosa [35]
  MIC: 256 µg/mL
Pseudomonas aeruginosa [36]
  MIC: > 128 µg/mL
